PMC11594329, “Development of LAT1-Selective Nuclear Medicine Therapeutics Using Astatine-211” (International Journal of Molecular Sciences, 2024)

Assays:
LAT1-Tet/HEK293 cells = assay: Uptake versus LAT1 expression level (Dox-induced) in LAT1-Tet/HEK293 cells; format: cell-based; settings: collection 30 min after treatment
Protocol: Each cell line was seeded in 24 wells at 1 × 10^5 cells/mL and allowed to become sub-confluent on the day of the experiment. Cells were washed with PBS (-) (Fujifilm Wako Pure Chemical, Osaka, Japan) prior to the addition of the compound, which was then replaced with uptake buffer. After treating the cells with the same dose, they were collected at predetermined time points. The cell dose was measured using a γ-counter (Wizard^2 2480; PerkinElmer, Waltham, MA, USA), and the protein content of the sample was determined. Protein content was measured using the BCA method, and the dose was corrected using the protein content (Protein Assay BCA kit, Fujifilm Wako Pure Chemical).
Figure 2 Comparison of uptake between the labeled compounds. (A) Relation between uptake ratio and LAT1 expression level. Uptake ratios were compared between LAT1-Tet/HEK293 cells. The Y-axis represents the uptake ratio, and the X-axis is concentration of Doxycycline (Dox) (TaKaRa Bio, Shiga, Japan). The collection time was 30 min after treatment. The expression of LAT1 increased with increasing amounts of Dox. (B) Comparison of uptake in PANC-1 cell line. The collection times were 0.5, 1, 5 and 10 min after treatment.
The PANC-1 cell line was obtained from the RIKEN Cell Bank and maintained in RPMI 1640 medium (Fujifilm Wako Pure Chemical, Osaka, Japan) supplemented with 10% inactivated fetal bovine serum (Thermo Fisher Scientific, Waltham, MA, USA). Mock/HEK293, LAT1/HEK293, and LAT2/HEK203 cells were kindly provided by Dr. Kanai. Cell lines controlling LAT1 expression were constructed using the Tet-on system. HEK293 cells were obtained from the RIKEN Cell Bank and maintained in E-MEM (Fujifilm Wako Pure Chemical) supplemented with 10% inactivated fetal bovine serum (Thermo Fisher Scientific) and non-essential amino acids (Fujifilm Wako Pure Chemical). The expression vectors were purchased from VectorBuilder, Inc. (Kanagawa, Japan). The purified viral particle genes were transfected into HEK293 cells. Drug selection and cloning of the cell line (Tet-LAT1/HEK293) were performed. […]

PANC-1 tumor model = assay: Tissue distribution in nude mice (PANC-1 tumor model); format: in vivo, BALB/c nu/nu mice; settings: nude mice (PANC-1 tumor model)
Protocol: BALB/c nu/nu mice (male, 5 weeks old) were purchased from Japan SLC (Shizuoka, Japan) and subcutaneously transplanted at a density of 1 × 10^7 cells/mouse. PANC-1 cells that reached the logarithmic growth phase were transplanted subcutaneously by mixing a 1 × 10^8 cells/mL cell suspension with an equivalent volume of Matrigel (Corning, Corning, NY, USA) to obtain 1 × 10^7 cells per mouse. Experiments were performed after the size of the transplanted tumor had exceeded 50 mm^3. The doses in the distribution experiments were as follows: ^211At-AAMT-OH-L (0.501 ± 0.011 MBq/mouse, 19.91 ± 0.59 g, n = 3) and ^211At-AAMT-O-Me-L (0.384 ± 0.003 MBq/mouse, 19.18 ± 0.38 g, n = 6 for Table 3), ^211At-AAMT-O-Me-L (158.10 ± 2.94 kBq/mouse, 19.27 ± 0.64 g, n = 6) and ^211At-AAMT-O-Me-D (135.08 ± 2.35 kBq/mouse, 18.64 ± 0.97 g, n = 6), ^211At-AAMT-O-Et-L (0.682 ± 0.011 MBq/mouse, 20.25 ± 1.41 g, n = 6), ^211At-AAMT-O-Pr-L (0.927 ± 0.020 MBq/mouse, 21.74 ± 0.37 g, n = 6).

[1] = Tissue distribution in ICR mice (normal animals); format: in vivo
Description: ICR mice (male, 5 weeks old) were purchased from Japan SLC (Shizuoka, Japan) and acclimated for one week prior to use. The doses in the distribution experiments were as follows: ^211At-AAMT-O-Me-L (0.407 ± 0.005 MBq/mouse, 31.64 ± 0.76 g, n = 6), ^211At-AAMT-O-Me-D (0.351 ± 0.004 MBq/mouse, 31.44 ± 0.94 g, n = 6), ^211At-AAMT-O-Et-L (0.685 ± 0.010 MBq/mouse, 24.14 ± 3.31 g, n = 6), ^211At-AAMT-O-Pr-L (1.09 ± 0.06 MBq/mouse, 26.33 ± 0.39 g, n = 6)

## CCCOc1ccc(C[C@](C)(N)C(=O)O)cc1[211At] [^211At-AAMT-O-Pr-L]
LAT1-Tet/HEK293 cells
  Uptake ratio versus LAT1 expression (doxycycline concentration): lower cellular uptake when LAT1 expression increased
PANC-1 tumor model; 10 min after injection
  Tissue distribution, Bladder: 18.24 ± 4.50 %ID/g
  Tissue distribution, Blood: 4.33 ± 0.45 %ID/g
  Tissue distribution, Bone: 3.50 ± 0.13 %ID/g
  Tissue distribution, Brain: 1.01 ± 0.04 %ID/g
  Tissue distribution, Cecum: 3.35 ± 0.30 %ID/g
  Tissue distribution, Colon: 4.56 ± 0.31 %ID/g
  Tissue distribution, Heart: 9.66 ± 0.87 %ID/g
  Tissue distribution, Kidney: 10.29 ± 0.97 %ID/g
  Tissue distribution, Liver: 3.67 ± 0.41 %ID/g
  Tissue distribution, Lung: 18.16 ± 1.88 %ID/g
  Tissue distribution, Pancreas: 10.85 ± 1.53 %ID/g
  Tissue distribution, Salivary glands: 11.89 ± 0.06 %ID/g
  Tissue distribution, Small intestine: 6.80 ± 0.63 %ID/g
  Tissue distribution, Spleen: 11.84 ± 1.91 %ID/g
  Tissue distribution, Stomach: 7.31 ± 0.30 %ID/g
  Tissue distribution, Testis: 3.54 ± 0.28 %ID/g
  Tissue distribution, Thyroid: 9.74 ± 0.39 %ID/g
  Tissue distribution, Tumor: 5.91 ± 0.27 %ID/g
PANC-1 tumor model; 1 h after injection
  Tissue distribution, Bladder: 18.00 ± 0.97 %ID/g
  Tissue distribution, Blood: 3.09 ± 0.25 %ID/g
  Tissue distribution, Bone: 2.03 ± 0.45 %ID/g
  Tissue distribution, Brain: 0.79 ± 0.13 %ID/g
  Tissue distribution, Cecum: 3.07 ± 1.06 %ID/g
  Tissue distribution, Colon: 3.27 ± 0.46 %ID/g
  Tissue distribution, Heart: 5.39 ± 1.06 %ID/g
  Tissue distribution, Kidney: 5.76 ± 0.67 %ID/g
  Tissue distribution, Liver: 2.41 ± 0.24 %ID/g
  Tissue distribution, Lung: 14.15 ± 1.78 %ID/g
  Tissue distribution, Pancreas: 3.54 ± 0.49 %ID/g
  Tissue distribution, Salivary glands: 20.98 ± 3.26 %ID/g
  Tissue distribution, Small intestine: 5.08 ± 0.53 %ID/g
  Tissue distribution, Spleen: 17.42 ± 6.48 %ID/g
  Tissue distribution, Testis: 3.56 ± 0.41 %ID/g
  Tissue distribution, Thyroid: 16.44 ± 1.16 %ID/g
  Tissue distribution, Tumor: 9.45 ± 0.82 %ID/g
[1]; 1 h after injection
  Tissue distribution, Bladder: 20.82 ± 5.36 %ID/g
  Tissue distribution, Blood: 1.77 ± 0.15 %ID/g
  Tissue distribution, Bone: 1.79 ± 0.12 %ID/g
  Tissue distribution, Brain: 0.25 ± 0.02 %ID/g
  Tissue distribution, Cecum: 1.49 ± 0.14 %ID/g
  Tissue distribution, Colon: 1.35 ± 0.07 %ID/g
  Tissue distribution, Heart: 3.14 ± 0.20 %ID/g
  Tissue distribution, Kidney: 2.25 ± 0.19 %ID/g
  Tissue distribution, Liver: 1.18 ± 0.08 %ID/g
  Tissue distribution, Lung: 6.54 ± 0.34 %ID/g
  Tissue distribution, Pancreas: 2.55 ± 0.60 %ID/g
  Tissue distribution, Salivary glands: 14.23 ± 3.16 %ID/g
  Tissue distribution, Small intestine: 1.83 ± 0.23 %ID/g
  Tissue distribution, Spleen: 4.11 ± 0.11 %ID/g
  Tissue distribution, Stomach: 13.55 ± 2.66 %ID/g
  Tissue distribution, Testis: 3.66 ± 0.14 %ID/g
  Tissue distribution, Thymus: 2.03 ± 0.28 %ID/g
  Tissue distribution, Thyroid: 23.08 ± 3.56 %ID/g
[1]; 3 h after injection
  Tissue distribution, Bladder: 5.37 ± 0.73 %ID/g
  Tissue distribution, Blood: 1.30 ± 0.12 %ID/g
  Tissue distribution, Bone: 1.32 ± 0.12 %ID/g
  Tissue distribution, Brain: 0.16 ± 0.01 %ID/g
  Tissue distribution, Cecum: 1.13 ± 0.25 %ID/g
  Tissue distribution, Colon: 1.29 ± 0.25 %ID/g
  Tissue distribution, Heart: 2.16 ± 0.18 %ID/g
  Tissue distribution, Kidney: 1.93 ± 0.29 %ID/g
  Tissue distribution, Liver: 0.82 ± 0.14 %ID/g
  Tissue distribution, Lung: 5.09 ± 0.43 %ID/g
  Tissue distribution, Pancreas: 1.60 ± 0.31 %ID/g
  Tissue distribution, Salivary glands: 11.39 ± 0.33 %ID/g
  Tissue distribution, Small intestine: 1.92 ± 0.12 %ID/g
  Tissue distribution, Spleen: 3.56 ± 0.54 %ID/g
  Tissue distribution, Stomach: 32.05 ± 3.31 %ID/g
  Tissue distribution, Testis: 2.34 ± 0.42 %ID/g
  Tissue distribution, Thymus: 1.76 ± 0.25 %ID/g
  Tissue distribution, Thyroid: 24.75 ± 3.77 %ID/g
